The values that follow come from ChEMBL document CHEMBL4400538, “Discovery of Carboline Derivatives as Potent Antifungal Agents for the Treatment of Cryptococcal Meningitis” (J Med Chem, 2019).

Molecules are shown by their SMILES. Converted amounts (≈) assume the structure as drawn. The source made the active and inactive calls. No cut-off for these calls is given here.

For test [1], the system named is Cryptococcus neoformans. Kind of test: Antifungal activity against Cryptococcus neoformans ATCC 34877 after 72 hrs by spectrophotometery. The following applies: ATCC 34877, 72 h. Type of test: functional.
For test [2], the system named is Cryptococcus neoformans. The test can be described thus: Antifungal activity against Cryptococcus neoformans H99 assessed as fragmented nuclei at 4 ug/ml after 24 hrs by TEM analysis. It is filed as functional, organism-based. The following applies: var grubii H99.
Test [3] has as its system Cryptococcus neoformans. The test can be described thus: Antifungal activity against Cryptococcus neoformans H99 assessed as damaged cell membranes at 4 ug/ml after 24 hrs by TEM analysis. It is filed as functional, organism-based. As to conditions: var grubii H99.
For a further test, the system named is Aspergillus fumigatus. Kind of test: Antifungal activity against Aspergillus fumigatus 7544 after 48 hrs by spectrophotometery. It is filed as functional. The following applies: Aspergillus fumigatus, 7544, 48 h.
For test [4], the system named is Cryptococcus neoformans. The test can be described thus: Antibiofilm activity against Cryptococcus neoformans H99 assessed as inhibition of cellular surface hydrophobicity at 10 ug/ml incubated for 24 hrs by water-hydrocarbon two-phase assay. As to conditions: var grubii H99. It is filed as functional, organism-based.
In test [5] the test system is Cryptococcus neoformans. The test can be described thus: Inhibition of melanin production in Cryptococcus neoformans H99 at 2.5 ug/ml. It is filed as functional, organism-based. As to conditions: var grubii H99.
The subject of a further test is Candida parapsilosis. The test can be described thus: Antifungal activity against Candida parapsilosis 5008 after 48 hrs by spectrophotometery. Type of test: functional. The following applies: Lodderomyces parapsilosis, 5008, 48 h.
A further test has as its system Trichophyton rubrum. Kind of test: Antifungal activity against Trichophyton rubrum TIA after 48 hrs by spectrophotometery. Type of test: functional.
Test [6] has as its system Candida albicans. The test can be described thus: Antifungal activity against Candida albicans 7781 after 48 hrs by spectrophotometery. Type of test: functional. The following applies: Candida albicans, 7781, 48 h.
The test system of test [7] is Cryptococcus neoformans. The test can be described thus: Induction of cell cycle arrest in Cryptococcus neoformans H99 assessed as accumulation at G1 phase at 4 ug/ml after 24 hrs by propidium iodide-staining based FACS analysis (reference value: 44.50%). Type of test: functional, var grubii H99.
In test [8] the test system is Cryptococcus neoformans. The test can be described thus: Antifungal activity against Cryptococcus neoformans H99 after 48 hrs by growth curve assay. The following applies: var grubii H99 . Type of test: functional.
In test [9] the test system is Cryptococcus neoformans. The test can be described thus: Antifungal activity against Cryptococcus neoformans H99 infected in ICR mouse assessed as reduction in brain fungal load at 20 mg/kg, po administered daily for 5 days. As to conditions: var grubii H99. Type of test: functional, organism-based.
Test [10] concerns Candida albicans. Kind of test: Antifungal activity against Candida albicans 0304103 after 48 hrs by spectrophotometery. It is filed as functional. As to conditions: Candida albicans, 0304103, 48 h.
In the next test the test system is Cryptococcus gattii. Kind of test: Antifungal activity against Cryptococcus gattii ATCC 14116 after 72 hrs by spectrophotometery. As to conditions: ATCC 14116, 72 h.
Test [11] concerns Cryptococcus neoformans. The test can be described thus: Induction of cell cycle arrest in Cryptococcus neoformans H99 assessed as accumulation at S phase at 4 ug/ml after 24 hrs by propidium iodide-staining based FACS analysis (reference value: 51.64%). It is filed as functional, var grubii H99.
In another test the test system is Nakaseomyces glabratus. The test can be described thus: Antifungal activity against Candida glabrata 8535 after 48 hrs by spectrophotometery. It is filed as functional. As to conditions: Nakaseomyces glabratus, 8535, 48 h.
Test [12] deals with Cryptococcus neoformans. Kind of test: Antifungal activity against Cryptococcus neoformans H99 assessed as up-regulation of Cdc25C expression at 2 to 4 ug/ml after 24 hrs by Western blot analysis. As to conditions: var grubii H99. It is filed as functional, organism-based.
The subject of test [13] is Cryptococcus neoformans. Kind of test: Induction of cell cycle arrest in Cryptococcus neoformans H99 assessed as accumulation at G2 phase at 4 ug/ml after 24 hrs by propidium iodide-staining based FACS analysis (reference value: 3.86%). Type of test: functional, var grubii H99.
The subject of another test is Nannizzia gypsea. The test can be described thus: Antifungal activity against Microsporum gypseum MZC after 48 hrs by spectrophotometery. Type of test: functional.
The test system of test [14] is Cryptococcus neoformans. Kind of test: Antifungal activity against Cryptococcus neoformans H99 assessed as up-regulation of CDK1 expression at 2 to 4 ug/ml after 24 hrs by Western blot analysis. It is filed as functional, organism-based. The following applies: var grubii H99.
For test [15], the system named is Cryptococcus neoformans. Kind of test: Antifungal activity against Cryptococcus neoformans H99 after 72 hrs by growth curve assay. Type of test: functional. The following applies: var grubii H99 .
Test [16] has as its system Cryptococcus neoformans. Kind of test: Antifungal activity against Cryptococcus neoformans H99 assessed as up-regulation of cyclin B1 expression at 2 to 4 ug/ml after 24 hrs by Western blot analysis. Type of test: functional, organism-based. As to conditions: var grubii H99.
Test [17] deals with Cryptococcus neoformans. The test can be described thus: Antifungal activity against Cryptococcus neoformans H99 assessed as cell wall collapse at 4 ug/ml after 24 hrs by TEM analysis. Type of test: functional, organism-based. As to conditions: var grubii H99.

Regarding `OC(Cn1cncn1)(Cn1cncn1)c1ccc(F)cc1F` [FLUCONAZOLE], the MIC80 is 4 µg/mL (≈ 13.1 µM) in the test on Cryptococcus neoformans [1]; more than 64 µg/mL against Aspergillus fumigatus; 32 µg/mL (≈ 104 µM) in the test with Candida parapsilosis; 2 µg/mL (≈ 6.53 µM) against Trichophyton rubrum; 32 µg/mL (≈ 104 µM) with Candida albicans [6]; 4 µg/mL (≈ 13.1 µM) against Cryptococcus neoformans [8]. In addition, the MIC80 in the test on Candida albicans [10] was more than 64 µg/mL; in the test with Cryptococcus gattii, 4 µg/mL (≈ 13.1 µM); with Nakaseomyces glabratus it was 4 µg/mL (≈ 13.1 µM); against Nannizzia gypsea it was 16 µg/mL (≈ 52.2 µM); against Cryptococcus neoformans [15], 2 µg/mL (≈ 6.53 µM). Also, the result in the test with Cryptococcus neoformans [2], in the test with Cryptococcus neoformans [3] and in the test on Cryptococcus neoformans [9] was Active. Besides, the outcome in the test on Cryptococcus neoformans [4], with Cryptococcus neoformans [12], in the test with Cryptococcus neoformans [14], with Cryptococcus neoformans [16] and in the test with Cryptococcus neoformans [17] was inactive. Also, in the test on Cryptococcus neoformans [5], the inhibition entry is “inactive”. Moreover, the Activity in the test on Cryptococcus neoformans [7] worked out at 50.86%; in the test on Cryptococcus neoformans [11], 48.17%; in the test on Cryptococcus neoformans [13] it was 0.96%.
